# Data as given in ChEMBL document CHEMBL1142630, “The application of HPLC with on-line coupled UV/MS-biochemical detection for isolation of an acetylcholinesterase inhibitor from narcissus 'Sir Winston Churchill'” (J Nat Prod, 2000).
# Target: Acetylcholinesterase (Homo sapiens, UniProt P22303)
# Experiment: Inhibition of AChE by microplate assay
# Acetylcholinesterase, sequence (P22303 whole entry): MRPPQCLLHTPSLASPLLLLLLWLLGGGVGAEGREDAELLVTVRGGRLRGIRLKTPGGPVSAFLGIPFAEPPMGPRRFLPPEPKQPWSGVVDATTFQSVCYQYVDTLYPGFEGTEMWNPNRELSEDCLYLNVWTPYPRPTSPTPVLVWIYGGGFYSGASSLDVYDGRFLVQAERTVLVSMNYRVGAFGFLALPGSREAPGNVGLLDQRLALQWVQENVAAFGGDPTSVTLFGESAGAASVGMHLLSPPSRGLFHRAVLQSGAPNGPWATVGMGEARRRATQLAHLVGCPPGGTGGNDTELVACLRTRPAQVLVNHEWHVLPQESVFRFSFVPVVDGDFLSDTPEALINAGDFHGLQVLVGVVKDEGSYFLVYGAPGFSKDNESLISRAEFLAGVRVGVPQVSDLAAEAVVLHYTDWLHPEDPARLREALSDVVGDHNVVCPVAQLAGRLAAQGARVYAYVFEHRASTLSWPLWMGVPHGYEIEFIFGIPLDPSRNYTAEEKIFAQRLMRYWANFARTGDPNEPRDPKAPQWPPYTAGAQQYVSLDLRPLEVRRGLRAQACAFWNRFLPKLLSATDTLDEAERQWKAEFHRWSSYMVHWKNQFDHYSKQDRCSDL
smiles,measurement,value
CO[C@@H]1[C@@H](O)[C@H]2c3cc4c(cc3CN3CC=C([C@H]1O)[C@H]23)OCO4 [UNGIMINORINE],IC50,86 µM
